Source: publication PMC8779152, “A “Double-Locked” and Enzyme/pH-Activated Theranostic Agent for Accurate Tumor Imaging and Therapy” (Molecules, 2022)

Molecular target: HDAC1 (Homo sapiens, UniProt Q13547)
Experiment: HDAC1 enzyme inhibition (assay details not given)
Type: biochemical

HDAC1, sequence (Q13547 whole entry): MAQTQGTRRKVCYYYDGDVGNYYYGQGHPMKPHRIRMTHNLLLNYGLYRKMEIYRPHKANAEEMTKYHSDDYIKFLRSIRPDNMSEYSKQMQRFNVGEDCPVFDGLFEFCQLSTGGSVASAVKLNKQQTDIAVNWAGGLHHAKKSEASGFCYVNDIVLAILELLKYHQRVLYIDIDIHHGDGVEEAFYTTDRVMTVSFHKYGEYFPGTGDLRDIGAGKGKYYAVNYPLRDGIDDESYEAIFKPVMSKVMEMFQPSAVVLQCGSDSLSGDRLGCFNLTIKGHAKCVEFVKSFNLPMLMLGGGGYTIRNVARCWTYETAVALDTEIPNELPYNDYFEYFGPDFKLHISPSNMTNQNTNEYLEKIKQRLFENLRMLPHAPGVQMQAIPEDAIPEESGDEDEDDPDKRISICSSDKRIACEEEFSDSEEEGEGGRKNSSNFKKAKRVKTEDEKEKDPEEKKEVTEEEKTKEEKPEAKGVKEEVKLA

Structure (SMILES) | IC50
Nc1ccc(-c2nc(NCc3ccc(C(=O)NO)cc3)cc3c2[nH]c2ccccc23)cc1 [H6AQ] | 41 ± 5 nM
O=C(NO)c1ccc(CNc2cc3c([nH]c4ccccc43)c(-c3ccc([N+](=O)[O-])cc3)n2)cc1 [H6M] | 65 ± 6 nM
